Where two headings read alike, the source gives them in different places. Positions of bridges follow the written chain, without caps; N, C: chain ends. Non-standard residues stand in square brackets, D forms with d. Residues, ends and D or L forms follow the SMILES beside them. ξ: configuration not given here. *: point of attachment. Phe(3-Cl) = N[C@@H](Cc1cccc(Cl)c1)C(=O)O; Phe(4-Cl) = N[C@@H](Cc1ccc(Cl)cc1)C(=O)O; Phe(3-F) = N[C@@H](Cc1cccc(F)c1)C(=O)O; Phe(3-Me) = Cc1cccc(C[C@H](N)C(=O)O)c1; Bta = N[C@@H](Cc1csc2ccccc12)C(=O)O; Hyp = O=C(O)[C@@H]1C[C@@H](O)CN1; NMeF = CN[C@@H](Cc1ccccc1)C(=O)O; 3Pal = N[C@@H](Cc1cccnc1)C(=O)O; dHyp = O=C(O)[C@H]1C[C@H](O)CN1; NMeNle = CCCC[C@H](NC)C(=O)O; NMeA = CN[C@@H](C)C(=O)O; Orn = NCCC[C@H](N)C(=O)O; dThz = O=C(O)[C@H]1CSCN1; Dab = NCC[C@H](N)C(=O)O; Dap = NC[C@H](N)C(=O)O; OtBu = CC(C)(C)O*; ξC = NC(CS)C(=O)O; Sar = CNCC(=O)O
Tests used:
[1] = biological target: T1, LK35.2-hPD-L1 cells / PE-labeled PD-1-Ig (Homo sapiens, UniProt Q9NZQ7); test: LK35.2-hPD-L1 cell binding high-content screening assay; format: cell-based
T1 construct: expressed in transfected cells; host or cells: LK35.2 mouse B cell line
How it was run: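 Mouse LK35.2 B cells stably overexpressing human PD-L1 were cultured overnight in RPMI with 10% FCS, then given compound and PE-labeled human PD-1-Ig (1 nM final) for 1 h at 37 °C. After three dPBS washes, bound fluorescence was quantified by high-content imaging.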

Human PD-L1/PD-1 = biological target: T2, Human PD-L1/PD-1 (Homo sapiens, UniProt Q9NZQ7); test: HTRF PD-1-Ig/PD-L1-His binding assay (human PD-L1)
T2 construct: made in house; host or cells: HEK293T
How it was run: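 Soluble Fc-fused PD-1 and His-tagged PD-L1 (truncated before the transmembrane region) were combined in dPBS with 0.1% (w/v) BSA and 0.05% (v/v) Tween-20. Binding was read by HTRF using europium cryptate anti-Ig antibody (1 nM final) and APC anti-His antibody (20 nM final).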

[2] = cluster symbol, cell line of CBA not given (LK35.2-hPD-L1 or 293T-hPD-L1), read-out: CBA IC50 cluster
[3] = cluster symbol, read-out: HTRF IC50 cluster
[4] = cell binding assay, cell line not given, cluster symbol, read-out: CBA IC50 cluster

T1 sequence (Q9NZQ7 19-290): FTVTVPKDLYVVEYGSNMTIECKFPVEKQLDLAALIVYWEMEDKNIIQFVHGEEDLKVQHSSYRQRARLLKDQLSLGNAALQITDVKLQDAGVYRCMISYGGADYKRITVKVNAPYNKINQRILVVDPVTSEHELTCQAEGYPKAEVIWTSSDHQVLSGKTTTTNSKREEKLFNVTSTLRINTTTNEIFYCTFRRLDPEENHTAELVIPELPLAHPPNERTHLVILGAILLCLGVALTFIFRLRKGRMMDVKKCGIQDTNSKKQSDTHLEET
T2 sequence (Q9NZQ7 with tags, fused parts or gaps): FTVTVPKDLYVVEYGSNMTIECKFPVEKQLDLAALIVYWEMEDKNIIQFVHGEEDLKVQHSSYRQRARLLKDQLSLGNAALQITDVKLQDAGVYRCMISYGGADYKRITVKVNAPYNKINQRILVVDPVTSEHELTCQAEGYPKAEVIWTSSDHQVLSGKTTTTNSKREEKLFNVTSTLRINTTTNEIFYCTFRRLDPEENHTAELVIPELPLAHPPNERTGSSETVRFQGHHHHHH

Compound | IC50 [1, 2] [nM] | IC50 (Human PD-L1/PD-1; [3]) [nM] | IC50 [1, 4] [nM] | also measured
CCCC[C@H]1C(=O)N(C)[C@@H](CCCC)C(=O)N[C@@H](CCCN)C(=O)N[C@H](C(=O)NCC(N)=O)CSCC(=O)N[C@@H](Cc2ccc(O)cc2)C(=O)N(C)[C@@H](C)C(=O)N[C@@H](CC(N)=O)C(=O)N2CCC[C@H]2C(=O)N[C@@H](Cc2c[nH]cn2)C(=O)N[C@@H](CC(C)C)C(=O)N2C[C@H](O)C[C@H]2C(=O)N[C@@H](Cc2c[nH]c3ccccc23)C(=O)N[C@@H](CCN)C(=O)N[C@@H](Cc2c[nH]c3ccccc23)C(=O)N1C [Example 1157] ({CH2CO}-Y[NMeA]NPHL[Hyp]W[Dab]W[NMeNle][NMeNle][Orn]CG-NH2; thioether N-14) | 0.158 to 4.71 | 6.76 to 30.3 |  | 
CCCC[C@H]1C(=O)N(C)[C@@H](CCCC)C(=O)N[C@@H](CCCNC(=N)N)C(=O)N[C@H](C(=O)NCC(N)=O)CSCC(=O)N[C@@H](Cc2cccc(Cl)c2)C(=O)N(C)[C@@H](C)C(=O)N[C@@H](CC(N)=O)C(=O)N2CCC[C@H]2C(=O)N[C@@H](Cc2cnc[nH]2)C(=O)N[C@@H](CC(C)C)C(=O)N(C)CC(=O)N[C@@H](Cc2c[nH]c3ccccc23)C(=O)N[C@@H](CO)C(=O)N[C@@H](Cc2c[nH]c3ccccc23)C(=O)N1C [Example 1102] ({CH2CO}-[Phe(3-Cl)][NMeA]NPHL[Sar]WSW[NMeNle][NMeNle]RCG-NH2; thioether N-14) | > 74.3 | > 30.5 |  | 
CCCC[C@H]1C(=O)N(C)[C@@H](CCCC)C(=O)N[C@@H](CCN)C(=O)N[C@H](C(=O)NCC(N)=O)CSCC(=O)N[C@@H](Cc2ccc(O)cc2)C(=O)N(C)[C@@H](C)C(=O)N[C@@H](CC(=O)O)C(=O)N2CCC[C@H]2C(=O)N[C@@H](Cc2cnc[nH]2)C(=O)N[C@@H](CCC(=O)O)C(=O)N2C[C@H](O)C[C@H]2C(=O)N[C@@H](Cc2c[nH]c3ccccc23)C(=O)N[C@@H](CCN)C(=O)N[C@@H](Cc2c[nH]c3ccccc23)C(=O)N1C [Example 5034] ({CH2CO}-Y[NMeA]DPHE[Hyp]W[Dab]W[NMeNle][NMeNle][Dab]CG-NH2; thioether N-14) |  | 0.385 to 6.74 | 0.158 to 4.71 | 
CCCC[C@H]1C(=O)N(C)CC(=O)N[C@@H](CC(=O)O)C(=O)N[C@@H](C(C)C)C(=O)N(C)[C@@H](Cc2ccccc2)C(=O)N[C@@H](Cc2ccc(O)cc2)C(=O)N(C)CC(=O)N[C@@H](Cc2csc3ccccc23)C(=O)N[C@@H](Cc2ccc(O)cc2)C(=O)N[C@@H](CC(C)C)C(=O)N[C@H](C(=O)NCC(N)=O)CSCC(=O)N[C@@H](Cc2cccc(F)c2)C(=O)N(C)[C@@H](Cc2ccccc2)C(=O)N1C [Example 3117] ({CH2CO}-[Phe(3-F)][NMeF][NMeNle][Sar]DV[NMeF]Y[Sar][Bta]YLCG-NH2; thioether N-13) | 4.78 to 72.9 | 6.76 to 30.3 |  | 
CCCC[C@H]1C(=O)N(C)CC(=O)N[C@@H](CC(=O)O)C(=O)N[C@@H](C(C)C)C(=O)N(C)[C@@H](Cc2ccccc2)C(=O)N[C@@H](Cc2ccc(O)cc2)C(=O)N2C[C@@H](O)C[C@@H]2C(=O)N[C@@H](Cc2c[nH]c3ccccc23)C(=O)N[C@@H](Cc2ccc(O)cc2)C(=O)N[C@@H](CC(C)C)C(=O)N[C@H](C(=O)NCC(N)=O)CSCC(=O)N[C@@H](Cc2ccccc2)C(=O)N(C)[C@@H](Cc2ccccc2)C(=O)N1C [Example 3576] ({CH2CO}-F[NMeF][NMeNle][Sar]DV[NMeF]Y[dHyp]WYLCG-NH2; thioether N-13) |  | 6.76 to 30.3 | 4.78 to 72.9 | 
CCCC[C@H]1C(=O)N(C)CC(=O)N[C@@H](CC(=O)O)C(=O)N[C@@H](C(C)C)C(=O)N(C)[C@@H](Cc2ccccc2)C(=O)N[C@@H](Cc2ccc(O)cc2)C(=O)N(C)CC(=O)N[C@@H](Cc2c[nH]c3ccccc23)C(=O)N[C@@H](Cc2ccccc2)C(=O)N[C@@H](CC(C)C)C(=O)N[C@H](C(=O)NCC(N)=O)CSCC(=O)N[C@@H](Cc2ccccc2)C(=O)N(C)[C@@H](Cc2ccccc2)C(=O)N1C [Example 3540] (HELM PEPTIDE1{[O=C(C[*:3])[*:2]].F.[meF].[CCCC[C@@H](C(=O)[*:2])N(C)[*:1]].[Sar].D.V.[meF].Y.[Sar].W.F.L.C.G.[am]}$PEPTIDE1,PEPTIDE1,1:R3-14:R3$$$V2.0) |  | > 30.5 | > 74.3 | 
CCCC[C@H]1C(=O)N(C)[C@@H](CCCC)C(=O)N[C@@H](CC(C)C)C(=O)N[C@H](C(=O)NCC(N)=O)CSCC(=O)N[C@@H](Cc2ccc(O)cc2)C(=O)N(C)[C@@H](C)C(=O)N[C@@H](CCN)C(=O)N2CCC[C@H]2C(=O)N[C@@H](Cc2c[nH]cn2)C(=O)N[C@@H](CCC(=O)O)C(=O)N2C[C@H](O)C[C@H]2C(=O)N[C@@H](Cc2c[nH]c3ccccc23)C(=O)N[C@@H](C(C)C)C(=O)N[C@@H](Cc2c[nH]c3ccccc23)C(=O)N1C [Example 5107] ({CH2CO}-Y[NMeA][Dab]PHE[Hyp]WVW[NMeNle][NMeNle]LCG-NH2; thioether N-14) |  | 6.76 to 30.3 | 4.78 to 72.9 | 
CCCC[C@H]1C(=O)N(C)CC(=O)N[C@@H](CC(=O)O)C(=O)N[C@@H](C(C)C)C(=O)N(C)[C@@H](Cc2ccccc2)C(=O)N[C@@H](Cc2ccc(O)cc2)C(=O)N(C)CC(=O)N[C@@H](Cc2c[nH]c3ccccc23)C(=O)N[C@@H](Cc2ccc(O)cc2)C(=O)N[C@@H](Cc2ccc(Cl)cc2)C(=O)N[C@H](C(=O)NCC(N)=O)CSCC(=O)N[C@@H](Cc2ccccc2)C(=O)N(C)[C@@H](Cc2ccccc2)C(=O)N1C [Example 3098] ({CH2CO}-F[NMeF][NMeNle][Sar]DV[NMeF]Y[Sar]WY[Phe(4-Cl)]CG-NH2; thioether N-13) | 4.78 to 72.9 | > 30.5 |  | 
CCCC[C@H]1C(=O)N(C)CC(=O)N[C@@H](CC(=O)OC(C)(C)C)C(=O)N[C@@H](C(C)C)C(=O)N(C)[C@@H](Cc2ccccc2)C(=O)N[C@@H](Cc2ccc(O)cc2)C(=O)N(C)CC(=O)N[C@@H](Cc2c[nH]c3ccccc23)C(=O)N[C@@H](Cc2ccc(O)cc2)C(=O)N[C@@H](CC(C)C)C(=O)N[C@H](C(=O)NCC(N)=O)CSCC(=O)N[C@@H](Cc2ccccc2)C(=O)N[C@@H](Cc2cccnc2)C(=O)N1C [Example 3604] ({CH2CO}-F[3Pal][NMeNle][Sar]D(OtBu)V[NMeF]Y[Sar]WYLCG-NH2; thioether N-13) |  | > 30.5 | > 74.3 | 
CCCC[C@H]1C(=O)N(C)[C@@H](CCCC)C(=O)N[C@@H](CCCNC(=N)N)C(=O)N[C@H](C(=O)NCC(N)=O)CSCC(=O)N[C@@H](Cc2cccc(C)c2)C(=O)N(C)[C@@H](C)C(=O)N[C@@H](CC(N)=O)C(=O)N2CCC[C@H]2C(=O)N[C@@H](CN)C(=O)N[C@@H](CC(C)C)C(=O)N2C[C@H](O)C[C@H]2C(=O)N[C@@H](Cc2c[nH]c3ccccc23)C(=O)N[C@@H](CO)C(=O)N[C@@H](Cc2c[nH]c3ccccc23)C(=O)N1C [Example 7035] ({CH2CO}-[Phe(3-Me)][NMeA]NP[Dap]L[Hyp]WSW[NMeNle][NMeNle]RCG-NH2; thioether N-14) |  | 0.385 to 6.74 | 4.78 to 72.9 | 
CCCC[C@H]1C(=O)N2CSC[C@@H]2C(=O)N[C@@H](CC(=O)O)C(=O)N[C@@H](C(C)C)C(=O)N(C)[C@@H](Cc2ccccc2)C(=O)N[C@@H](Cc2ccc(O)cc2)C(=O)N(C)CC(=O)N[C@@H](Cc2c[nH]c3ccccc23)C(=O)N[C@@H](Cc2ccc(O)cc2)C(=O)N[C@@H](CC(C)C)C(=O)N[C@H](C(=O)NCC(N)=O)CSCC(=O)N[C@@H](Cc2ccccc2)C(=O)N(C)[C@@H](Cc2ccccc2)C(=O)N1C [Example 3600] ({CH2CO}-F[NMeF][NMeNle][dThz]DV[NMeF]Y[Sar]WYLCG-NH2; thioether N-13) |  |  |  | IC50 ([1]; cell binding assay, cell line not given, value given instead of cluster, read-out: CBA IC50 value): 3.9 nM; IC50 (Human PD-L1/PD-1; value given instead of cluster, read-out: HTRF IC50 value): 6.1 nM
CC(C)C[C@@H]1NC(=O)[C@H](Cc2ccc(O)cc2)NC(=O)[C@H](Cc2c[nH]c3ccccc23)NC(=O)CN(C)C(=O)[C@H](Cc2ccc(O)cc2)NC(=O)[C@H](Cc2ccccc2)N(C)C(=O)[C@H](C(C)C)NC(=O)[C@H](CC(=O)O)NC(=O)CN(C)C(=O)[C@H](CC(C)C)N(C)C(=O)[C@H](Cc2ccccc2)N(C)C(=O)[C@H](Cc2ccccc2)NC(=O)CSC[C@@H](C(=O)NCC(N)=O)NC1=O [Example 3136] (HELM PEPTIDE1{[O=C(C[*:3])[*:2]].F.[meF].[meL].[Sar].D.V.[meF].Y.[Sar].W.Y.L.C.G.[am]}$PEPTIDE1,PEPTIDE1,1:R3-14:R3$$$V2.0) | 4.78 to 72.9 | 6.76 to 30.3 |  | 
CCCC[C@H]1C(=O)N(C)[C@@H](CCCC)C(=O)N[C@@H](CCCNC(=N)N)C(=O)NC(C(=O)NCC(N)=O)CSCC(=O)N[C@@H](Cc2ccc(O)cc2)C(=O)N(C)[C@@H](C)C(=O)N[C@@H](CC(N)=O)C(=O)N2C[C@H](O)C[C@H]2C(=O)N[C@@H](Cc2cnc[nH]2)C(=O)N[C@@H](CC(C)C)C(=O)N2CCC[C@H]2C(=O)N[C@@H](Cc2c[nH]c3ccccc23)C(=O)N[C@@H](CO)C(=O)N[C@@H](Cc2c[nH]c3ccccc23)C(=O)N1C (stereo partly shown) [Example 9011] ({CH2CO}-Y[NMeA]N[Hyp]HLPWSW[NMeNle][NMeNle]R[ξC]G-NH2; thioether N-14) |  |  |  | IC50 ([1]; cell binding assay, cell line not given, numeric value, read-out: CBA IC50 values): 13.5 nM; IC50 (Human PD-L1/PD-1; numeric value, read-out: HTRF IC50 values): 9.4 nM
CCCC[C@H]1C(=O)N(C)[C@@H](CCCC)C(=O)N[C@@H](CCCNC(=N)N)C(=O)NC(C(=O)NCC(N)=O)CSCC(=O)N[C@@H](Cc2ccc(O)cc2)C(=O)N(C)[C@@H](C)C(=O)N[C@@H](CC(N)=O)C(=O)N2CCC[C@H]2C(=O)N[C@@H](Cc2cnc[nH]2)C(=O)N[C@@H](CC(N)=O)C(=O)N2C[C@H](O)C[C@H]2C(=O)N[C@@H](Cc2c[nH]c3ccccc23)C(=O)N[C@@H](CO)C(=O)N[C@@H](Cc2csc3ccccc23)C(=O)N1C (stereo partly shown) [Example 9066] ({CH2CO}-Y[NMeA]NPHN[Hyp]WS[Bta][NMeNle][NMeNle]R[ξC]G-NH2; thioether N-14) |  | 0.385 to 6.74 | 0.158 to 4.71 | 
